Where two headings read alike, the source gives them in different places.
What was measured:
Type in all cases: in vivo
[1] = tested on: Pyrenophora teres on barley; assay: Greenhouse trial, 4 day residual, Pyrenophora teres on barley; details: for pest or weed control at 2 ppm / pest or weed control at 10 ppm / pest or weed control at 0.4 ppm / pest or weed control at 50 ppm: Pyrenophora teres, 96 h, read-out: Observed Efficacy
From the text: (§1) The fungicides are applied in single treatments, or in a combination comprising a benzophenone of formula I and a compound selected from (A) through (E) as defined above. The compounds are applied in form of an aqueous spray mix obtained from a concentrated formulation or the technical material.
(§2) 1. Seed is planted in 6 cm diameter plastic pots and maintained in the greenhouse.
(§3) 2. When the primary leaf is fully expanded (in the case of cereals) or several leaves are present (in the case of dicots), formulated test compounds are sprayed with a three nozzle overhead fungicide sprayer to near run-off. Alternatively, a single nozzle overhead track sprayer is used for application of the compounds to cereals at a rate of 200 liters/ha (l/ha). Plants are then allowed to air-dry.
(§4) 3. Inoculation precedes treatment in the case of curative evaluations and follows treatment in case of residual evaluations. For inoculation of powdery mildew disease, plants are set up on greenhouse benches with bottom watering mats and inoculated by dusting them with conidia from infected plants. Between inoculation and treatment for curative evaluations and between treatment and inoculation for residual evaluations, plants are maintained in the greenhouse with bottom watering. For inoculation of non-powdery mildew diseases, an aqueous spore suspension of the pathogen is applied to the plant and the plants are kept 1-2 days in a moist infection chamber before being returned to the greenhouse where they are maintained by bottom watering.
(§5) 4. Disease on the foliage as percent leaf area with disease symptoms/signs is evaluated about 7 days after inoculation. In the case of wheat, the tips and bases of the leaves are excluded from the evaluation. [formula]
(§6) 1. Technical compounds are formulated in a solvent/surfactant system consisting of 5% acetone and 0.05% Tween 20 in deionized water. Compounds are dissolved in acetone prior to addition of the water; the Tween 20 can be added through either the acetone or the water. Dilutions are made using the solvent/surfactant system. Formulated compounds are prepared using deionized water.
(§7) Assessments of the diseases took place at the indicated day after the application of the compounds. Per cent infected leaf area infected was evaluated. The efficacy of the compounds/compounds mixtures to control the diseases was calculated by using the formula given above under item 4: […]
(§8) Synergy of a fungicide mixture was determined by comparing the actual (observed) fungicidal activity of the mixture to the expected fungicidal activity of the mixture as calculated using the COLBY formula given hereinabove.
Fungicidal Efficacy of the Mixture of BP-4+Other Fungicides (4 Day Residual) Against Pyrenophora teres on Barley

[2] = tested on: Erysiphe cichoracearum on cucumbers; assay: Greenhouse trial, 4 day residual, Erysiphe cichoracearum on cucumbers; details: for pest or weed control at 0.4 ppm / pest or weed control at 10 ppm / pest or weed control at 2 ppm / pest or weed control at 50 ppm: Golovinomyces cichoracearum, 96 h, read-out: Observed Efficacy
From the text: as §1, §2, §3, §4, §5, §6, §7, §8

[3] = tested on: Puccinia recondita on wheat; assay: Greenhouse trial, 4 day residual, Puccinia recondita on wheat
From the text: as §1, §2, §3, §4, §5, §6, §7, §8
Fungicidal Efficacy of the Mixture of BP-4+Other Fungicides (4 Day Residual) Against Puccinia recondita on Wheat
Fungicidal Efficacy of the Mixture of BP-4+Myclobutanil (4 Day Residual) Against Puccinia recondita on Wheat

[4] = tested on: Leptosphaeria nodorum on wheat; assay: Greenhouse trial, 4 day residual, Leptosphaeria nodorum on wheat; details: Table VIII, compound alone
From the text: as §1, §2, §3, §4, §5, §6, §7, §8
Fungicidal Efficacy of the Mixture of BP-4+Other Fungicides (4 Day Residual) Against Leptosphaeria nodorum on Wheat

[5] = Table XIII (Example 13), 4 day residual, dose rate 0.4 ppm
[6] = Table XIII (Example 13), 4 day residual, dose rate 2 ppm
[7] = Table XIII (Example 13), 4 day residual, dose rate 10 ppm
[8] = Table XIII (Example 13), 4 day residual, dose rate 50 ppm
[9] = Table XIV (Example 14), 4 day residual, dose rate 0.4 ppm
[10] = Table XIV (Example 14), 4 day residual, dose rate 10 ppm
[11] = Puccinia recondita, 96 h, Table XV (Example 15), 4 day residual, dose rate 0.4 ppm, read-out: Observed Efficacy
[12] = Puccinia recondita, 96 h, Table XV (Example 15), 4 day residual, dose rate 2 ppm, read-out: Observed Efficacy
[13] = Table XVI (Example 16), 4 day residual, dose rate 2 ppm
[14] = Table XVI (Example 16), 4 day residual, dose rate 10 ppm
[15] = Table XIV (Example 14), 4 day residual, dose rate 2 ppm
[16] = Table XIV (Example 14), 4 day residual, dose rate 50 ppm
[17] = Puccinia recondita, 96 h, Table XV (Example 15), 4 day residual, dose rate 10 ppm, read-out: Observed Efficacy
[18] = Puccinia recondita, 96 h, Table XV (Example 15), 4 day residual, dose rate 50 ppm, read-out: Observed Efficacy
[19] = Table XVI (Example 16), 4 day residual, dose rate 0.4 ppm
[20] = Table XI, compound alone, dose rate 0.4 ppm
[21] = Table XI, compound alone, dose rate 2 ppm
[22] = Table XI, compound alone, dose rate 10 ppm
[23] = Table XI, compound alone, dose rate 50 ppm
[24] = Puccinia recondita, 96 h, read-out: Observed Efficacy
[25] = Table XVI (Example 16), 4 day residual, dose rate 50 ppm
[26] = Table VI, compound alone, dose rate 4 ppm
[27] = Table VI, compound alone, dose rate 16 ppm
[28] = Table VI, compound alone, dose rate 64 ppm
[29] = Table VI, compound alone, dose rate 256 ppm
[30] = Table VII, compound alone, dose rate 4 ppm
[31] = Table VII, compound alone, dose rate 16 ppm
[32] = Table VII, compound alone, dose rate 64 ppm
[33] = Table VII, compound alone, dose rate 256 ppm

[Cl-].[Cu+2].[Cu+2].[OH-].[OH-].[OH-] [Copper oxychloride]
Observed Efficacy [1, 5]: 0 | Observed Efficacy [1, 6]: 0 | Observed Efficacy [1, 7]: 14 | Observed Efficacy [1, 8]: 14

CC(C1CC1)C(O)(Cn1cncn1)c1ccc(Cl)cc1 (stereo not shown) [Cyproconazole]
pest or weed control at 0.4 ppm [2, 9]: 19% | pest or weed control at 10 ppm [2, 10]: 68% | pest or weed control at 0.4 ppm [3, 11]: 88% | pest or weed control at 2 ppm [3, 12]: 99% | pest or weed control at 2 ppm [1, 13]: 4% | pest or weed control at 10 ppm [1, 14]: 1%

OC(c1ccc(Cl)cc1)(c1cncnc1)c1ccccc1Cl (stereo not shown) [Fenarimol]
pest or weed control at 0.4 ppm [2, 9]: 5% | pest or weed control at 2 ppm [2, 15]: 34% | pest or weed control at 10 ppm [2, 10]: 42% | pest or weed control at 50 ppm [2, 16]: 67% | pest or weed control at 0.4 ppm [3, 11]: 0% | pest or weed control at 2 ppm [3, 12]: 9% | pest or weed control at 10 ppm [3, 17]: 23% | pest or weed control at 50 ppm [3, 18]: 90% | pest or weed control at 2 ppm [1, 13]: 0% | pest or weed control at 10 ppm [1, 14]: 4%

CC(Cc1ccc(C(C)(C)C)cc1)CN1C[C@@H](C)O[C@@H](C)C1 (stereo partly shown) [Fenpropimorph]
pest or weed control at 0.4 ppm [2, 9]: 0% | pest or weed control at 2 ppm [2, 15]: 0% | pest or weed control at 10 ppm [2, 10]: 7% | pest or weed control at 0.4 ppm [3, 11]: 2% | pest or weed control at 2 ppm [3, 12]: 15% | pest or weed control at 50 ppm [3, 18]: 60% | pest or weed control at 0.4 ppm [1, 19]: 0% | pest or weed control at 2 ppm [1, 13]: 0% | pest or weed control at 10 ppm [1, 14]: 3%

CO/N=C(/C(=O)OC)c1ccccc1COc1ccccc1C [Kresoxim-methyl]
pest or weed control at 0.4 ppm [2, 20]: 2% | pest or weed control at 2 ppm [2, 21]: 14% | pest or weed control at 10 ppm [2, 22]: 88% | pest or weed control at 50 ppm [2, 23]: 100% | pest or weed control at 0.4 ppm [1, 5]: 0% | pest or weed control at 2 ppm [1, 6]: 21%

CCCCC(C#N)(Cn1cncn1)c1ccc(Cl)cc1 (stereo not shown) [Myclobutanil]
pest or weed control at 0.4 ppm [2, 20]: 36% | pest or weed control at 2 ppm [2, 21]: 52% | pest or weed control at 10 ppm [2, 22]: 73% | pest or weed control at 50 ppm [2, 23]: 96% | pest or weed control at 0.4 ppm ([3]; Puccinia recondita, 96 h, Table XII, compound alone, dose rate 0.4 ppm, read-out: Observed Efficacy): 13% | pest or weed control at 2 ppm ([3]; Puccinia recondita, 96 h, Table XII, compound alone, dose rate 2 ppm, read-out: Observed Efficacy): 52% | pest or weed control at 10 ppm ([3]; Puccinia recondita, 96 h, Table XII, compound alone, dose rate 10 ppm, read-out: Observed Efficacy): 72% | pest or weed control at 50 ppm ([3]; Puccinia recondita, 96 h, Table XII, compound alone, dose rate 50 ppm, read-out: Observed Efficacy): 99% | pest or weed control at 0.4 ppm [1, 5]: 0% | pest or weed control at 2 ppm [1, 6]: 21% | pest or weed control at 10 ppm [1, 7]: 40% | pest or weed control at 50 ppm [1, 8]: 82%

CCCN(CCOc1c(Cl)cc(Cl)cc1Cl)C(=O)n1ccnc1 [Prochloraz]
pest or weed control at 0.4 ppm [2]: 0% | pest or weed control at 2 ppm [2]: 0% | pest or weed control at 10 ppm [2]: 1% | pest or weed control at 50 ppm [2]: 18% | pest or weed control at 0.4 ppm [3, 24]: 0% | pest or weed control at 2 ppm [3, 24]: 0% | pest or weed control at 16 ppm [3, 24]: 1% | pest or weed control at 50 ppm [3, 24]: 14% | pest or weed control at 0.4 ppm [1]: 8% | pest or weed control at 2 ppm [1]: 19% | pest or weed control at 10 ppm [1]: 48%

CON=C(Cc1cccnc1)c1ccc(Cl)cc1Cl [Pyrifenox]
pest or weed control at 0.4 ppm [2, 9]: 0% | pest or weed control at 2 ppm [2, 15]: 0% | pest or weed control at 10 ppm [2, 10]: 1% | pest or weed control at 50 ppm [2, 16]: 20% | pest or weed control at 0.4 ppm [3, 11]: 0% | pest or weed control at 2 ppm [3, 12]: 0% | pest or weed control at 10 ppm [3, 17]: 1% | pest or weed control at 50 ppm [3, 18]: 6% | pest or weed control at 0.4 ppm [1, 19]: 0% | pest or weed control at 2 ppm [1, 13]: 0% | pest or weed control at 50 ppm [1, 25]: 15%

CCCN(CC)CC1COC2(CCC(C(C)(C)C)CC2)O1 (stereo not shown) [Spiroxamine]
pest or weed control at 0.4 ppm [2, 9]: 0% | pest or weed control at 2 ppm [2, 15]: 0% | pest or weed control at 10 ppm [2, 10]: 2% | pest or weed control at 2 ppm [3, 12]: 0% | pest or weed control at 10 ppm [3, 17]: 4% | pest or weed control at 50 ppm [3, 18]: 17% | pest or weed control at 0.4 ppm [1, 19]: 0% | pest or weed control at 2 ppm [1, 13]: 3% | pest or weed control at 10 ppm [1, 14]: 5% | pest or weed control at 50 ppm [1, 25]: 16%

S1SSSSSSS1 [Sulfur organic, Sulfur]
pest or weed control at 0.4 ppm [2, 20]: 0% | pest or weed control at 2 ppm [2, 21]: 0% | pest or weed control at 10 ppm [2, 22]: 7% | pest or weed control at 50 ppm [2, 23]: 0% | pest or weed control at 2 ppm [1, 6]: 0% | pest or weed control at 10 ppm [1, 7]: 0%

Cyprodinil
Observed Efficacy ([4]; dose rate 4 ppm): 0% | Observed Efficacy ([4]; dose rate 16 ppm): 75% | Observed Efficacy ([4]; dose rate 64 ppm): 88% | Observed Efficacy ([4]; dose rate 256 ppm): 93% | Observed Efficacy [2, 26]: 0% | Observed Efficacy [2, 27]: 0% | Observed Efficacy [2, 28]: 0% | Observed Efficacy [2, 29]: 15% | Observed Efficacy [3, 30]: 0% | Observed Efficacy [3, 31]: 0% | Observed Efficacy [3, 32]: 0% | Observed Efficacy [3, 33]: 0%

Dinocap
Observed Efficacy [2, 9]: 0 | Observed Efficacy [2, 15]: 0 | Observed Efficacy ([3]; Table XV (Example 15), 4 day residual, dose rate 0.4 ppm): 4 | Observed Efficacy ([3]; Table XV (Example 15), 4 day residual, dose rate 2 ppm): 13 | Observed Efficacy ([3]; Table XV (Example 15), 4 day residual, dose rate 10 ppm): 23 | Observed Efficacy [1, 19]: 0 | Observed Efficacy [1, 13]: 0 | Observed Efficacy [1, 14]: 5

Mancozeb
Observed Efficacy ([4]; dose rate 4 ppm): 0% | Observed Efficacy ([4]; dose rate 16 ppm): 21% | Observed Efficacy ([4]; dose rate 64 ppm): 47% | Observed Efficacy ([4]; dose rate 256 ppm): 69% | Observed Efficacy [2, 26]: 0% | Observed Efficacy [2, 27]: 0% | Observed Efficacy [2, 28]: 1% | Observed Efficacy [2, 29]: 33% | Observed Efficacy [3, 30]: 0% | Observed Efficacy [3, 31]: 0% | Observed Efficacy [3, 32]: 28% | Observed Efficacy [3, 33]: 91%

Propiconazole
Observed Efficacy [2, 20]: 0% | Observed Efficacy [2, 21]: 19% | Observed Efficacy [2, 22]: 76% | Observed Efficacy [2, 23]: 96% | Observed Efficacy [1, 5]: 0 | Observed Efficacy [1, 6]: 0 | Observed Efficacy [1, 7]: 38 | Observed Efficacy [1, 8]: 74

Quinoxyfen
Observed Efficacy ([4]; dose rate 16 ppm): 1% | Observed Efficacy ([4]; dose rate 64 ppm): 0% | Observed Efficacy ([4]; dose rate 256 ppm): 18% | Observed Efficacy [2, 26]: 90% | Observed Efficacy [2, 27]: 100% | Observed Efficacy [2, 28]: 100% | Observed Efficacy [2, 29]: 100% | Observed Efficacy [3, 30]: 0% | Observed Efficacy [3, 31]: 0% | Observed Efficacy [3, 32]: 0% | Observed Efficacy [3, 33]: 0%
